Experimental data: patent US20130085157A1, “ARYLSUBSTITUTED THIAZOLOTRIAZOLES AND THIAZOLOIMIDAZOLES” (priority 2011, published 2013)

Molecular target: T1, human TGR5 bile acid receptor (Homo sapiens, UniProt Q8TDU6)
T1 construct: The full length TGR5 gene is inserted into pCMV6 vector DNA (Origene); expressed in transfected cells
T1 sequence (Q8TDU6 1-330): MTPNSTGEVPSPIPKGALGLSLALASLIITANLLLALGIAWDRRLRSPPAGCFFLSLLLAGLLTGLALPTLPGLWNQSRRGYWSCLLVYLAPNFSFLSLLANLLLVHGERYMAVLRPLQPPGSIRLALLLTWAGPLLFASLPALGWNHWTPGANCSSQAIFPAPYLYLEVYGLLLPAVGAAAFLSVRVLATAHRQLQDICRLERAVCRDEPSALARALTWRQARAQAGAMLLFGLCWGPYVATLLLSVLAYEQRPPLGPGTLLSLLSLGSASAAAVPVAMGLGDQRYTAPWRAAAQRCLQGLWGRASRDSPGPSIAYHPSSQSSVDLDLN
Assay: TGR5 receptor activation, HTRF cAMP assay in 293/humanTGR5 cells
Type: cell-based
Details: activation of 293/humanTGR5 (HEK 293) cells measured by cAMP levels, 30 minutes at 37° C., relative to vehicle and 50 μM of Compound 7
Experimental: Transformed E. coli stocks containing cDNA for the full length human TGR5 bile acid receptor (IMAGE clone #5221127) are obtained from Open Biosystems. Cultures are grown in LB broth, and cDNA is purified using Qiagen mini-prep columns. The full length TGR5 gene is inserted into pCMV6 vector DNA (Origene) by ligation followed by transformation in competent E. coli. Ampicillin-resistant clones are isolated and vector DNA containing the TGR5 gene is verified by DNA sequence analysis (Sequetech). The resulting plasmid is transfected into HEK 293 cells using FuGene 6 transfection reagent and the transfected cells are grown in the presence of 1 mg/mL G418 selection antibiotic. A number of individual G418 resistant colonies are isolated by using 150 μL cloning cylinders. The resulting 293/humanTGR5 expressing cell lines are then screened for responsiveness to the natural ligand lithocholic acid. A single clone is chosen for expansion and use for screening, this clone reproducibly responds to known receptor agonists for over 30 passages. The 293/humanTGR5 cells are maintained in DMEM/F12 media supplemented with 10% fetal bovine serum (Hyclone) and 15 mM HEPES buffer (Invitrogen). Cells are passaged twice weekly and maintained at densities to assure logarithmic growth. For use in cAMP assays, cells are trypsinzied, centrifuged, and resuspended in DMEM/F12 media supplemented with 0.5% FBA and 15 mM HEPES buffer. These cells are adjusted to a density which allows distribution of 25,000 cells in 20 μL of volume to each well of a half-area 96-well plate (Greiner Bio-One). 20 μL of test compounds diluted to a 2× concentration in DMEM/F12 media with 0.5% FBS are then added to the 96-well plates, and the plates are then incubated for 30 minutes at 37° C. in a 5% CO2 atmosphere. Levels of resulting cAMP for each treatment condition are then determined by use of an HTRF cAMP assay (CisBio) following the manufactures directions. The resulting data is analyzed using IDBX XLfit software and IC50 determinations are made for each test compound by comparing cAMP levels to vehicle controls (unstimulated) and TGR5 agonist-activated cells (50 μM of Compound 7, a reported TGR5 receptor agonist, J. Med. Chem., 2009, 52 (24), pp 7962-7965). Specificity for human TGR5 agonist activity is confirmed for compounds of interest by testing them against cell lines over expressing the mouse TGR5 receptor, human GPR119 receptor, and parent cell lines followed by measurement of resulting cAMP levels. Assay responsiveness is controlled for by measuring cAMP levels induced by 50 μM Forskolin in cells, a known adenylyl […] activator.

SMILES | EC50 [µM]
COc1ccc(Cc2sc3nnc(SCc4c(F)cccc4Cl)n3c2-c2ccc(F)cc2)cc1OC [Example 83] | 0.5 to 5
Cc1ccc(N(C)C(=O)c2sc3nnc(C)n3c2-c2ccccc2)cc1Cl [Example 2, N-(3-chloro-4-methyl-phenyl)-N,3-dimethyl-5-phenyl-thiazolo[2,3-c][1,2,4]triazole-6-carboxamide] | 0.5 to 5
c1ccc2cc(-c3csc4nnc(SCc5ccc6c(c5)OCO6)n34)ccc2c1 [Example 131] | 5 to 50
Cc1ccc(Nc2nnc3scc(-c4cc(Cl)ccc4Cl)n23)cc1Cl [Example 14, N-(3-chloro-4-methylphenyl)-5-(2,5-dichlorophenyl)thiazolo[2,3-c][1,2,4]triazol-3-amine] | 0.5 to 5
COc1ccc(Cc2sc3nnc(SCc4c(F)cccc4Cl)n3c2-c2cccc(Cl)c2)cc1OC [Example 17, 3-[(2-Chloro-6-fluoro-phenyl)methylsulfanyl]-5-(3-chlorophenyl)-6-[(3,4-dimethoxyphenyl)methyl]thiazolo[2,3-c][1,2,4]triazole] | 0.5 to 5
Fc1cccc(Cl)c1CSc1ncc2scc(-c3cccc(Cl)c3)n12 [Example 15, 5-[(2-chloro-6-fluoro-phenyl)methylsulfanyl]-3-(3-chlorophenyl)imidazo[5,1-b]thiazole] | < 0.5
COc1ccc(Cc2sc3cnc(SCc4c(F)cccc4Cl)n3c2-c2cccc(Cl)c2)cc1OC [Example 18, 5-[(2-chloro-6-fluoro-phenyl)methylsulfanyl]-3-(3-chlorophenyl)-2-[(3,4-dimethoxyphenyl)methyl]imidazo[5,1-b]thiazole] | < 0.5
CN(C(=O)C(C)(C)C)c1cc(F)ccc1-c1csc2nnc(SCc3ccc4c(c3)OCO4)n12 [Example 59] | 5 to 50
c1ccc(-c2csc3nnc(SCc4ccc5c(c4)OCO5)n23)cc1 [Example 6, 3-(1,3-Benzodioxol-5-ylmethylsulfanyl)-5-phenyl-thiazolo[2,3-c][1,2,4]triazole] | 5 to 50
CCc1sc2nnc(SCc3ccc4c(c3)OCO4)n2c1-c1ccccc1 [Example 48] | 5 to 50
Fc1cccc(Cl)c1CSc1nnc2scc(-c3cccc(Cl)c3)n12 [Example 117] | 0.5 to 5
COc1ccc(-c2csc3nnc(SCc4ccc5c(c4)OCO5)n23)c(Cl)c1 [Example 65] | 0.5 to 5
Cc1ccc(N(C)C(=O)c2sc3nncn3c2-c2ccccc2)cc1Cl [Example 1, N-(3-chloro-4-methyl-phenyl)-N-methyl-5-phenyl-thiazolo[2,3-c][1,2,4]triazole-6-carboxamide] | 0.5 to 5
COc1ccc(Cc2sc3nnc(SCc4ccc(F)cc4F)n3c2-c2ccc(F)c(Cl)c2)cc1Cl [Example 106] | 0.5 to 5
Fc1cccc(Cl)c1CSc1nnc2scc(-c3ccccc3)n12 [Example 19] | 5 to 50
Cc1nnc2sc(SCc3c(F)cccc3Cl)c(-c3ccccc3)n12 [Example 8, 6-[(2-Chloro-6-fluoro-phenyl)methylsulfanyl]-3-methyl-5-phenyl-thiazolo[2,3-c][1,2,4]triazole] | 5 to 50
Cc1ccc(N(C)C(=O)c2sc3nnc(SCc4ccc5c(c4)OCO5)n3c2-c2ccccc2)cc1Cl [Example 3, 3-(1,3-Benzodioxol-5-ylmethylsulfanyl)-N-(3-chloro-4-methyl-phenyl)-N-methyl-5-phenyl-thiazolo[2,3-c][1,2,4]triazole-6-carboxamide] | 0.5 to 5
c1ccc(-c2csc3nnc(CCc4ccc5c(c4)OCO5)n23)cc1 [Example 4, 3-[2-(1,3-benzodioxol-5-yl)ethyl]-5-phenyl-thiazolo[2,3-c][1,2,4]triazole] | 5 to 50
COc1cc(Cl)c(Cc2sc3nnc(SCc4ccc5c(c4)OCO5)n3c2-c2cccc(Cl)c2)cc1OC [Example 127] | 0.5 to 5
COc1cc(Br)c(Cc2sc3nnc(SCc4c(F)cccc4Cl)n3c2-c2ccc(F)c(Cl)c2)cc1OC [Example 119] | 0.5 to 5
COC(=O)c1cccc(CSc2nnc3scc(-c4cccc(Br)c4)n23)c1 [Example 66] | 0.5 to 5
c1ccc(CCSc2nnc3scc(-c4ccccc4)n23)cc1 [Example 30] | 5 to 50

SMILES | EC50 [µM]
Brc1cccc(-c2csc3nnc(SCc4ccc5c(c4)OCO5)n23)c1 [Example 69] | < 0.5
Cc1ccc(N(C)c2nnc3scc(-c4cc(Cl)ccc4Cl)n23)cc1Cl [Example 120] | 0.5 to 5
c1ccc(-c2csc3nnc(Oc4ccc5c(c4)OCO5)n23)cc1 [Example 46] | 5 to 50
Clc1ccc(CSc2nnc3scc(-c4ccccc4)n23)cc1 [Example 26] | 0.5 to 5
Fc1cccc(Cl)c1CSc1cnc2scc(-c3cccc(Cl)c3)n12 [Example 138, 5-[(2-chloro-6-fluoro-phenyl)methylsulfanyl]-3-(3-chlorophenyl)imidazo[2,1-b]thiazole] | 0.5 to 5
COc1cc(-c2csc3nnc(SCc4ccc5c(c4)OCO5)n23)ccc1F [Example 50] | 0.5 to 5
Fc1ccc(-c2csc3nnc(SCc4ccc5c(c4)OCO5)n23)cc1Br [Example 53] | < 0.5
Cc1cc(-c2csc3nnc(SCc4ccc5c(c4)OCO5)n23)ccc1F [Example 115] | < 0.5
Clc1cccc(-c2csc3nnc(SCc4ccc5c(c4)OCO5)n23)c1Cl [Example 76] | 0.5 to 5
COc1ccc(CSc2nnc3sc(-c4c(F)cccc4Cl)c(-c4ccc(F)cc4)n23)cc1F [Example 94] | 0.5 to 5
OC(c1ccc(F)cc1)c1sc2nnc(SCc3ccc4c(c3)OCO4)n2c1-c1ccccc1 (centres unmarked) [Example 7, [3-(1,3-Benzodioxol-5-ylmethylsulfanyl)-5-phenyl-thiazolo[2,3-c][1,2,4]triazol-6-yl]-(4-fluorophenyl)methanol] | 5 to 50
Cc1ccc(-c2csc3nnc(SCc4c(F)cccc4Cl)n23)cc1Cl [Example 86] | 0.5 to 5
Fc1ccc(-c2c(-c3c(F)cccc3Cl)sc3nnc(Cc4ccc5c(c4)OCO5)n23)cc1 [Example 97] | 5 to 50
COc1ccc(Cc2sc3nnc(SCc4c(F)cccc4Cl)n3c2-c2ccc(F)c(Cl)c2)cc1Cl [Example 100] | 0.5 to 5
CC(c1ccccc1)c1sc2nnc(SCc3c(F)cccc3Cl)n2c1-c1ccc(F)cc1 (centres unmarked) [Example 98] | 5 to 50
C=C(c1ccc(OC)c(OC)c1)c1sc2nnc(SCc3c(F)cccc3Cl)n2c1-c1ccccc1 [Example 12, 3-[(2-chloro-6-fluoro-phenyl)methylsulfanyl]-6-[1-(3,4-dimethoxyphenyl)vinyl]-5-phenyl-thiazolo[2,3-c][1,2,4]triazole] | 5 to 50
Cc1ccc(-c2csc3nnc(SCc4c(F)cccc4Cl)n23)cc1 [Example 109] | < 0.5
Fc1ccc(-c2csc3nnc(SCc4ccc5c(c4)OCO5)n23)cc1 [Example 24] | 5 to 50
c1cc(-c2csc3nnc(SCc4ccc5c(c4)OCO5)n23)cc(C2CC2)c1 [Example 80] | 0.5 to 5
COc1cc(Br)c(Cc2sc3nnc(SCc4c(F)cccc4Cl)n3c2-c2ccc(F)c(Cl)c2)c(Br)c1OC [Example 112] | 0.5 to 5
c1ccc(-c2csc3nnc(SCc4ccc5cnccc5c4)n23)cc1 [Example 43] | 5 to 50
COc1ccc(C(C)(C)c2sc3nnc(SCc4c(F)cccc4Cl)n3c2-c2ccccc2)cc1OC [Example 11, 3-[(2-chloro-6-fluoro-phenyl)methylsulfanyl]-6-[1-(3,4-dimethoxyphenyl)-1-methyl-ethyl]-5-phenyl-thiazolo[2,3-c][1,2,4]triazole] | 0.5 to 5
